Legend:
[1] = system: HeLa (human cervix adenocarcinoma) cells; test: MTT cell viability assay, HeLa; assay type: cell-based; conditions: increasing concentrations, 24 and 48 h
Protocol: (§1) The cells were seeded into 96-well plates at a starting density of 10^4 cells per well and cultured overnight before DEA was added to the medium for 24 h and 48 h. The medium was changed to a fresh one containing 0.5% of 3-[4,5-dimethylthiazol-2-yl]-2,5-diphenyl-tetrazolium bromide (MTT+) for an additional 3 hours, then the MTT+ reaction was terminated by adding HCl to 10 mM final concentration. The amount of blue formazan dye formed from MTT+ was proportional to the number of live cells, and was determined with an Anthos Labtech 2010 ELISA reader at 550 nm. All experiments were run in at least 4 replicates and repeated 3 times.
The effect of desethylamiodarone was measured in T24 (human urinary bladder carcinoma), A549 (human lung adenocarcinoma epithelial), B16F10 (mice melanoma), HeLa (human cervix adenocarcinoma), 4T1 (mouse mammary carcinoma) cell lines. Cells were treated with increasing concentrations of desethylamiodarone for 24 and 48 h. Cell growth was assessed by measuring metabolic activity, which reflects viability in the MTT-test in the course of 24 h, 48 h of continued exposure to desethylamiorarone. The untreated cells served as negative controls. The viability of the cells, was lower in all DEA-treated than in the control group, with the difference being statistically significant.

[2] = system: DU-145 prostate cancer cell line; test: Cisplatin sensitivity of DU-145 cells with DEA (MTT); assay type: cell-based; conditions: increasing cisplatin, 48 hours, presence or absence of 10 μM DEA
Protocol: as §1
DU-145 cells were exposed to increasing concentrations of cisplatin 48 hours in presence or absence of 10 μM DEA. Viability of the cells was detected by the MTT method. Untreated cells served as controls.

[3] = system: A549 human lung adenocarcinoma epithelial cell line; test: Colony formation assay, A549; assay type: cell-based; conditions: one week; 1, 1.5, 2, 2.5 or 3 μM
Protocol: Cells were trypsinized and plated in triplicate into 6-well plates at 500 cells/well. Cells were treated with different concentration of Dea. After 7 days of incubation, cells were washed and stained with Coomassie-blue, and the colonies containing more than 50 cells were counted. The number of colonies were determined and normalized to the number of colonies in controls. To assess the recovery ability of cells that survived treatment, long-term (7 days) colony formation assay was performed. […] A549 cells were incubated with the indicated concentrations of desethylamiodarone (1, 1.5, 2, 2.5 or 3 μM for one week and cell colonies were fixed, stained and counted. (A-B) Data are expressed as the mean±SD of ≧3 experiments; a p<0.01 is considered statistically significant.

[4] = system: A549 human lung adenocarcinoma epithelial cell line; test: Radiotherapy plus DEA, colony formation, A549; assay type: cell-based; conditions: 1Gy or 2Gy single dose alone or with 500 nM-3 μM DEA
Protocol: Cells were trypsinized and plated in triplicate into 6-well plates at 500 cells/well. Cells were treated with different concentration of DEA and irradiated with a dose of 1.0 and 2.0 Grays. A telecobalt (Therathron 780 C) external irradiation equipment (average photon energy of 1.25 MeV) will be applied for irradiating cells. After 7 days of incubation, cells were washed and stained with Coomassie-blue, and the colonies containing more than 50 cells were counted. The number of colonies were determined and normalized to the number of colonies in controls.
To examine the effects of a DEA on the effectiveness of radiotherapy the cells were treated with 1Gy or 2Gy single dose irradiation alone or combined with 500 nM-3 μM DEA.
The cells were treated with 1Gy or 2Gy single dose irradiation alone or combined with 500 nM-3 μM DEA. Untreated cells served as controls. The results are mean±SEM of 3 independent experiments performed in at least quadruplicate. p<0.05 compared to the corresponding control group.

[5] = system: p42/44 mitogen-activated protein kinase (MAPK) (ERK1/2); test: Western blot of ERK phosphorylation; assay type: cell-based, human; conditions: 5-10-15 μM, 6 hours; T24, B16F10 cell lines
Protocol: 10^6 cells were seeded into regular plates and treated as for the cell viability assay. Cells were harvested at intervals in a chilled lysis buffer containing 0.5 mM sodium-metavanadate, 1 mM ethylenediaminetetraacetic acid (EDTA) and protease inhibitor cocktail in phosphate-buffered saline (PBS). Probes were boiled and subjected to 10% sodium dodecyl sulphate polyacrylamide gel electrophoresis then transferred to nitrocellulose membranes. The membranes were blocked in 5% low fat milk for 1.5 h at room temperature then exposed to primary antibodies at 4° C. overnight in blocking solution. Appropriate horseradish peroxidase-conjugated secondary antibodies were used at a 1:5000 dilution (anti-mouse and anti-rabbit IgGs; Sigma-Aldrich, Steinheim, Germany) and visualized by enhanced chemiluminescence (Amersham Biosciences, Piscataway, N.J., USA). All experiments were repeated 3 times.
To determine the downstream consequences of DEA treatment, we examined the phosphorylation status of AKT (protein kinase B), GSK-3β and p42/44 mitogen-activated protein kinase (MAPK) (ERK1/2) by immunoblotting in T24 (human urinary bladder carcinoma), B16F10 (mice melanoma) cell lines. Cells were cultured in the presence of 5-10-15 μM DEA for 6 hours. The cells were prepared and western blot analysis was carried out to perform both phosphorylated and non-phosphorylated forms of the previously listed proteins. […]

[6] = clinically relevant concentrations; cited from earlier work
[7] = repetitive exposures; cited from earlier work

With `CCCCc1oc2ccccc2c1C(=O)c1cc(I)c(OCCNCC)c(I)c1` [DEA, (2-butyl-3-benzofuranyl)[4-[2-(ethylamino)ethoxy]-3,5-diiodophenyl]-methanone] the “Viability of HeLa cells (MTT)” value [1] was “significantly inhibited the viability”, the “Cisplatin sensitivity of DU-145 cells (MTT)” value [2] was “sensitizes DU-145 prostate cancer cells for cisplatin” and the “Colony formation, A549” value [3] was “significant decrease in the number and the size of colonies”. For the same compound, the “Radiosensitization, colony formation, A549” value [4] was “sensitize lung cancer to irradiation”, the ERK phosphorylation [5] was “a decrease in its phosphorylation” and the “Action potential duration (class III antiarrhythmic effect)” value [6] was “significantly increasing the action potential duration”. For the same compound, the “Maximum rate of depolarization (class I antiarrhythmic effect)” value [6] was “decreasing the maximum rate of depolarization” and the “Drug accumulation in cell cultures” value [7] was “always higher than that of AM”.

Source: patent publication US9884040B2, “Desethylamiodarone for use in cancer treatment” (PÉCSI TUDOMÁNYEGYETEM, priority 2015, dated 2018)
